Read-outs that look alike come from different tables or passages of the source. Numbered stars: 1 amine (or outer) side, 2 acyl side, 3 side chain; on linkers, the order of the positions; unused ones are H or OH. Bridge positions count the residues as written; N and C are the ends. Square brackets hold non-standard residues; d marks the D form. Peptide text beside a SMILES is read from it. * marks the point of attachment. X1 = CC[C@H](C)[C@@H](N[*:1])[C@@H](O)CC(=O)O[C@H](C(=O)[C@H](C)C(=O)[*:2])C(C)C; NMeY = CN[C@@H](Cc1ccc(O)cc1)C(=O)O; Stearoyl = CCCCCCCCCCCCCCCCCC(=O)*; dNMeL = CN[C@H](CC(C)C)C(=O)O; Lauroyl = CCCCCCCCCCCC(=O)*; Octanoyl = CCCCCCCC(=O)*; Hexanoyl = CCCCCC(=O)*; Pentanoyl = CCCCC(=O)*
Tests used:
[1] = test system: L1210; assay: L1210 cytotoxicity, inhibition at fixed doses (Table 10); format: cell-based, murine
[2] = test system: L1210; conditions: for cytotoxicity (result in words): Table 1 footnote and text

Compound | cytotoxicity (result in words) [2] | Cytotoxicity percent L1210 inhibition ([2]; dose 5 ng/mL) [%] | Cytotoxicity percent L1210 inhibition ([2]; dose 12.5 ng/mL) [%] | Cytotoxicity percent L1210 inhibition ([2]; dose 25 ng/mL) [%] | also measured
CC[C@H](C)[C@H]1NC(=O)[C@@H](NC(=O)[C@@H](CC(C)C)N(C)C(=O)[C@@H]2CCCN2C(=O)[C@H](C)O)[C@@H](C)OC(=O)[C@H](CC2CCCCC2)N(C)C(=O)[C@@H]2CCCN2C(=O)[C@H](CC(C)C)NC(=O)[C@@H](C)C(=O)[C@H](C(C)C)OC(=O)C[C@@H]1O [[H6 -N-MePhe^5] didemnin B (118), [Hexahydro-N-MePhe^5]didemnin B] |  |  |  |  | Inhibition (%) ([1]; dose 25 ng/mL, tested 4/18/1991): 99%; Inhibition (%) ([1]; dose 25 ng/mL, tested 4/22/1990): 99%; Inhibition (%) ([1]; dose 250 ng/mL, tested 4/18/1991): 99%; Inhibition (%) ([1]; dose 250 ng/mL, tested 4/22/1990): 99%
CCCCCC(=O)N(C)[C@H](CC(C)C)C(=O)N[C@@H]1C(=O)N[C@H]([C@@H](C)CC)[C@@H](O)CC(=O)O[C@@H](C(C)C)C(=O)[C@H](C)C(=O)N[C@@H](CC(C)C)C(=O)N2CCC[C@H]2C(=O)N(C)[C@@H](Cc2ccc(OC)cc2)C(=O)O[C@@H]1C [N^a -Hexanoyl-, N-hexanoyl didemnin A] (Hexanoyl-[dNMeL]T[X1]LP[NMeY](Me); ester 2-C) | retained the cytotoxicity of didemnin B | 73 | 89 | 92 | 
CCCCCCCC(=O)N(C)[C@H](CC(C)C)C(=O)N[C@@H]1C(=O)N[C@H]([C@@H](C)CC)[C@@H](O)CC(=O)O[C@@H](C(C)C)C(=O)[C@H](C)C(=O)N[C@@H](CC(C)C)C(=O)N2CCC[C@H]2C(=O)N(C)[C@@H](Cc2ccc(OC)cc2)C(=O)O[C@@H]1C [N^a -Octanoyl-, N-octanoyl didemnin A] (Octanoyl-[dNMeL]T[X1]LP[NMeY](Me); ester 2-C) | retained the cytotoxicity of didemnin B | 89 | 93 | 94 | 
CCCCCCCCCCCCCCCCCC(=O)N(C)[C@H](CC(C)C)C(=O)N[C@@H]1C(=O)N[C@H]([C@@H](C)CC)[C@@H](O)CC(=O)O[C@@H](C(C)C)C(=O)[C@H](C)C(=O)N[C@@H](CC(C)C)C(=O)N2CCC[C@H]2C(=O)N(C)[C@@H](Cc2ccc(OC)cc2)C(=O)O[C@@H]1C [stearoyl, N-stearoyl didemnin A] (Stearoyl-[dNMeL]T[X1]LP[NMeY](Me); ester 2-C) | inactive |  |  |  | 
CCCCC(=O)N(C)[C@H](CC(C)C)C(=O)N[C@@H]1C(=O)N[C@H]([C@@H](C)CC)[C@@H](O)CC(=O)O[C@@H](C(C)C)C(=O)[C@H](C)C(=O)N[C@@H](CC(C)C)C(=O)N2CCC[C@H]2C(=O)N(C)[C@@H](Cc2ccc(OC)cc2)C(=O)O[C@@H]1C [N^a -Pentanoyl-, N-pentanoyl didemnin A] (Pentanoyl-[dNMeL]T[X1]LP[NMeY](Me); ester 2-C) | retained the cytotoxicity of didemnin B | 56 | 81 | 91 | 
N-palmitoyl didemnin A | inactive |  |  |  | 
CCCCCCCCCCCC(=O)N(C)[C@H](CC(C)C)C(=O)N[C@@H]1C(=O)N[C@H]([C@@H](C)CC)[C@@H](O)CC(=O)O[C@@H](C(C)C)C(=O)[C@H](C)C(=O)N[C@@H](CC(C)C)C(=O)N2CCC[C@H]2C(=O)N(C)[C@@H](Cc2ccc(OC)cc2)C(=O)O[C@@H]1C [lauroyl, N-lauroyl didemnin A] (Lauroyl-[dNMeL]T[X1]LP[NMeY](Me); ester 2-C) | inactive |  |  |  | 
